Test results as given in patent publication US20180252712A1, “RECEPTOR FOR NOROVIRUS AND USES THEREOF” (priority 2017, published 2018).

How the values were obtained:
[1] = tested on: MNoV^CW3; assay: CRISPR screen in BV2-Cas9 cells, sgRNA enrichment after MNoV^CW3 infection; type: cell-based, murine norovirus; details: for log2 fold enrichment after MNV infection relative to mock infected cells, CW3 MOI 0.05: MNoV^CW3, MOI 0.05, ten days post-infection; for log2 fold enrichment after MNV infection relative to mock infected cells, CW3 MOI 5: MNoV^CW3, MOI 5, ten days post-infection
Protocol: (§1) BV2 cells were transduced with pXPR_101 (Addgene plasmid 52962) and selected with blasticidin for eleven days. Cas9 activity was assessed by transducing parental BV2 or BV2-Cas9 cells with pXPR_011 (Addgene plasmid 59702), expresses eGFP and a sgRNA targeting eGFP at an MOI<1 [1]. Cells were transduced for 2 days and subsequently, selected for five days with puromycin and the frequency of eGFP expression was assessed by flow cytometry. The mouse ASIAGO sgRNA CRISPR library contains six independent genome wide pools which each pool containing a unique sgRNA targeting each of 20,077 mouse genes. Four ASIAGO pools were independently used to generate the BV2 library (Doench et al submitted). Each ASIAGO pool was delivered by lentiviral transduction of 5×10^7 BV2 cells at an MOI ˜0.2. This equates to 1×10^7 transduced cells, which is sufficient for the integration of each sgRNA 500 independent times. Two days post transduction, puromycin was added to the media and transduced cells were selected for five days. For each experimental condition, 1×10^7 BV2-Cas9 cells containing sgRNAs were seeded in a T175 tissue culture flask. Cells were infected with either MNoV^CW3 or MNoV^CR6 at MOls of 0.05 and 5. Mock infected cells were harvested 48 hrs after seeding and served as a reference for sgRNA enrichment analysis. Ten days post-infection genomic DNA was isolated from surviving cells using a Qiamp DNA mini kit according to manufacturer instructions (Qiagen).
(§2) Illumina sequencing and STARS analysis was performed as described previously (Doench et al, in press). Briefly, genomic DNA was aliquoted into multiple wells of a 96-well plate with up to 10 μg of DNA in 50 μl total volume. A PCR mastermix consisting of ExTaq DNA polymerase (Clontech), ExTaq buffer, dNTP, P5 stagger primer, and water was generated. 40 μl of PCR master mix, and 10 μl of a barcoded primer was added to each well containing 50 μl of DNA. Samples were PCR amplified as follows: 95° C. for 1 min., followed by 28 cycles of 94° C. for 30 sec., 52.5° C. for 30 sec., 72° C. for 30 sec. with a final 10 min. at 72° C. PCR product was purified with Agencourt AMPure XP SPRI beads according to the manufacture's protocol (Beckman Coluter). Samples were sequenced on an Illumina HiSeq 2000. Barcodes in the P7 primer were deconvuluted and the sgRNA sequence was mapped to a reference file of sgRNAs in the ASIAGO library. To normalize for different numbers of reads per condition, read counts per sgRNA were normalized to 10^7 total reads per sample. This normalized value was then log-2 transformed. sgRNAs that were not sequenced were arbitrarily assigned a read count of 1. sgRNA frequencies were then analyzed using STARS software, which is available at broadinstitute.org/rnai/public/software/index (Doench et al, in press). STARS computes a score for each gene of rank-ordered sgRNA hits that was above […] of total sequenced sgRNAs. A STAR score was only assigned to genes that scored above this threshold in at least two of four independent genome wide pools.

[2] = tested on: MNoV^CR6; assay: CRISPR screen in BV2-Cas9 cells, sgRNA enrichment after MNoV^CR6 infection; type: cell-based, murine norovirus; details: for log2 fold enrichment after MNV infection relative to mock infected cells, CR6 MOI 0.05: MNoV^CR6, MOI 0.05, ten days post-infection; for log2 fold enrichment after MNV infection relative to mock infected cells, CR6 MOI 5: MNoV^CR6, MOI 5, ten days post-infection
Protocol: as §1, §2

Substance	log2 fold enrichment after MNV infection relative to mock infected cells, CW3 MOI 0.05 [1] [log2 fold enrichment]	log2 fold enrichment after MNV infection relative to mock infected cells, CW3 MOI 5 [1]	log2 fold enrichment after MNV infection relative to mock infected cells, CR6 MOI 0.05 [2] [log2 fold enrichment]	log2 fold enrichment after MNV infection relative to mock infected cells, CR6 MOI 5 [2] [log2 fold enrichment]
TGTCACTGTGAAGATGGTGG: sgRNA used in screen, matches CD300lf (listed as DNA, chemistry not given here)	8.4	13.3^B log2 fold enrichment	7.2	−1.9
GTTACTGTGAACATTGGCCC: sgRNA used in screen, matches CD300lf (listed as DNA, chemistry not given here)	0.0	12.1 log2 fold enrichment	0.0	12.0
GGATCCAGTCACAGGTCCAG: sgRNA used in screen, matches CD300lf, CD300lh (listed as DNA, chemistry not given here)	0.0	12.5 log2 fold enrichment	0.0	12.6
CGTAGCCAGACACAGAGCCA: sgRNA used in screen, matches CD300le (listed as DNA, chemistry not given here)	−5.9	−5.5 log2 fold enrichment	−5.8	−5.9
CTCCACGTAGGTACACCGCA: sgRNA used in screen, matches CD300lg (listed as DNA, chemistry not given here)	−5.8	−5.3 log2 fold enrichment	−5.6	−5.8
ACGGAAGTGAGAAAGAAAAG: sgRNA used in screen, matches CD300le (listed as DNA, chemistry not given here)	−6.6	−6.6 log2 fold enrichment	−6.6	−6.6
TACCACGCCACAGGACTCCA: sgRNA used in screen, matches CD300lg (listed as DNA, chemistry not given here)	0.0	−6.2 log2 fold enrichment	0.0	−6.2
CCTGTGATCCAGAAGAGAAA: sgRNA used in screen, matches CD300lf (listed as DNA, chemistry not given here)	9.6	9.6 log2 fold enrichment	9.6	9.6
ACAGGTCCAGAGGAGGTGAG: sgRNA used in screen, matches CD300ld, CD300lf, CD300lh (listed as DNA, chemistry not given here)	0.0	13.0 log2 fold enrichment	0.0	13.1
TAGAGCAGAGAACTGCCACA: sgRNA used in screen, matches CD300ld (listed as DNA, chemistry not given here)	−6.7	−6.7 log2 fold enrichment	−6.7	−6.7
GGAAGAGGATGAGCAGAGCA: sgRNA used in screen, no identical CD300 match marked (listed as DNA, chemistry not given here)	−6.4	−6.4 log2 fold enrichment	−6.4	−6.4
GCCCTTGCTACTTACCTGGG: sgRNA used in screen, matches CD300ld (listed as DNA, chemistry not given here)	0.0	−5.5 log2 fold enrichment	0.0	−5.5
CTAGCTACTACTCTGATAAC: sgRNA used in screen, matches CD300lf (listed as DNA, chemistry not given here)	0.0	11.0 log2 fold enrichment	0.0	9.8
GGTCGTCCCTGATGGACACA: sgRNA used in screen, matches CD300lh (listed as DNA, chemistry not given here)	12.0	7.8 log2 fold enrichment	12.0	11.0
TCAGAGAAAGAAACGAAGAG: sgRNA used in screen, matches CD300lb (listed as DNA, chemistry not given here)	−5.5	−5.5 log2 fold enrichment	−5.5	−5.5
GAGTGTGTCATGTCGATATG: sgRNA used in screen, matches CD300la (listed as DNA, chemistry not given here)	−6.2	−6.2 log2 fold enrichment	−6.2	−6.2
GCAGCAAATCCAAATCTCAG: sgRNA used in screen, matches CD300lb (listed as DNA, chemistry not given here)	−5.8	−5.8 log2 fold enrichment	−5.8	−5.8
